Assay results from patent publication EP2371816A1, “Aminocyclohexenone, their preparation and use as medicament against oxidative stress” (ABIOGEN PHARMA S.p.A., priority 2010, dated 2011).

What was measured:
[1] = tested on: cerebral oxidative stress induced in mice by doxorubicin; experiment: In vivo assay of cerebral oxidative stress induced in mice by doxorubicin; details: for Brain/BWi its own / CAT/pr its own / GPX/pr its own / GSH/pr its own / GST/pr its own / Prot. Hmg its own / Prot. Ox/pr its own / SOD/pr its own / Brain/BWi vehicle / CAT/pr vehicle / GPX/pr vehicle / GSH/pr vehicle / GST/pr vehicle / Prot. Hmg vehicle / Prot. Ox/pr vehicle / SOD/pr vehicle: % inhibition relative to variation due to doxorubicin alone, oxidized animals; for Brain/BWi its own / CAT/pr its own / GPX/pr its own / GSH/pr its own / GST/pr its own / Prot. Hmg its own / Prot. Ox/pr its own / SOD/pr its own: as function of its own control; for Brain/BWi vehicle / CAT/pr vehicle / GPX/pr vehicle / GSH/pr vehicle / GST/pr vehicle / Prot. Hmg vehicle / Prot. Ox/pr vehicle / SOD/pr vehicle: as function of vehicle; for Brain/BWi / CAT/pr / GPX/pr / GSH/pr / GST/pr / Prot. Hmg / Prot. Ox/pr / SOD/pr: % variation relative to the vehicle, 50 mg/kg IP x3 days (D = doxorubicin alone); for Brain/BWi / CAT/pr / GPX/pr / GSH/pr / GST/pr / Prot. Hmg / Prot. Ox/pr / SOD/pr / Mean % variation relative to the vehicle: healthy animals; for Mean % variation relative to the vehicle: 50 mg/kg IP days 0, 1 and 2, mean over all parameters, approximate safety index (D = doxorubicin alone); for overall percentage inhibition: with respect to Its own vehicle
Experimental: The assay was carried out on compounds (1) and (3)-(6) and on edaravone (E) as comparative compound.
10 mice were used for each treatment group. For each compound 50 mg/kg were administered intraperitoneally (IP) for three consecutive days (day 0, 1 and 2); half the animals (5) also received IP 16.7 mg/kg of doxorubicin immediately after the first treatment (day 0). On the day after the last administration (day 3) the animals were killed by neck dislocation and the brains were removed, weighed and frozen in liquid nitrogen.
For the analyses of oxidative stress, 100 mg/ml of brain homogenate was prepared in Hebe buffer (pH 7.4 EDTA/HEPES^(**)) containing a mixture of enzyme inhibitors (Leupeptin, Pepstatin, Aprotinin, BHA). • ^(*) Hypotonic Extraction Buffer • ^(**) 4-2-hydroxyethyl-1-piperazinyl-ethanesulphonic acid
The evaluation parameters were: • BrW/BWi: ratio between final brain weight and initial body weight (day 0); • Prot. Hmg: total proteins in the homogenate (BCA method, i.e. bicinchoninic acid); • Prot. Ox: oxidized proteins in the Hmg by means of a colorimetric method using […] (DNPH); • GSH: reduced glutathione in the supernatant (sn) of the Hmg, obtained after precipitation with metaphosphoric acid (MPA), by means of a colorimetric method using […] (DTNB); • CAT: catalase in the Hmg by a colorimetric method using potassium dichromate; • SOD: superoxide dismutase by a colorimetric method using SOD Reagent (xanthine, EDTA, nitroblue tetrazole, Na2CO3, BSA, i.e. bovine serum albumin); • GST: glutathione S-transferase in the supernatant by a colorimetric method using chlorodinitrobenzene (CDNB) and GSH; and • GPx: glutathione peroxidase in the supernatant after addition of GSH and tert butyl hydroperoxide (t-BuOOH), heating and precipitation with MPA; followed by GSH method with DTNB.
All the parameters, with the exclusion of Brain/BWi and Prot. Hmg, were normalized for total Hmg proteins (Table 3). The D value standard deviations and the % incidence relative to V are given in italics.
The mean % effect, on all the parameters simultaneously, of the triple treatment in the healthy animals, as mean percentage variation relative to the vehicle (table 4). This value is useful as an approximate safety index of the oxidative state of the brain, i.e. the capacity of the compounds of the invention not to alter cerebral homeostasis in healthy animals.
The effect of the tested compounds on the "oxidized" animals was given as % inhibition relative to the percentage variation due to doxorubicin alone. The effect of the compounds on the oxidized animals can be expressed both as a function of the values of the vehicle (healthy, vehicle only) and as a function of the value of its own control (healthy, compound only): • Vehicle: percentage [(Compound+D)/V]x100/[(V+D)/V]x100 • Its own: percentage [(Compound+D)/Compound]x100/[(V+D)/V]x100

[2] = mouse, in vivo
Experimental: The ability of the compounds of the invention to penetrate the brain was investigated by measuring their brain/plasma (B/P) concentration ratio in mice following intraperitoneal administration.
Female CD-1 mice were used (n=3 for each time period) and received the compounds of the invention by intraperitoneal administration, in 25 mg/kg doses in a 0.5% NaHCO3 buffer (pH 8.3). At predefined intervals following said administration, i.e. 5, 15, 30 and 60 minutes, the mice were killed and both plasma and total brain tissue were collected.
Specifically, after anaesthesia with ether, the animals were bled by blood withdrawal from the abdominal aorta then immediately decapitated. The blood samples were collected into plasma separator tubes containing Li-Heparin as anticoagulant and centrifuged. The resulting plasma was then stored at -20 °C. The brain was rapidly removed from the cranium and weighed, subsequently frozen and stored at -20 °C before treatment by homogenization and HPLC analysis.
The plasma was thawed and mixed with an equal volume of the extraction solution. This extraction solution was a mixture of aqueous and organic solvents whose composition had been previously determined by HPLC undertaken for each analyte.
1 ml of solution was then extracted by adding 20 µl of 70% HClO4 then centrifuged at 15,500g for 5 minutes and injected into the HPLC.
Each brain was thawed and homogenized with the extraction solution to provide a final composition of 4 ml/1g of tissue by means of an Ultra-Turrax blender and sonicated for 5 minutes. After centrifugation of the homogenate at 15,500g for 5 minutes, the resulting solution was treated with HClO4, as indicated for the plasma.
Specific chromatographic conditions had been developed for each analyte, the calibration curve being constructed for plasma and brain homogenate.

[3] = pH at the semi-neutralization point of titration (pKa); assay type: physicochemical; details: titration with 0.1 N NaOH or HCl
Experimental: The following equipment was used during the implementation of all the examples: • for melting point determination a Buchi B-540 instrument was used; • for pH determination at the semi-neutralization point of titration (pKa) a Mettler Toledo DL-50 instrument was used with a 0.1 N xNaOH or HCl solution; • the ^1H-NMR spectra were recorded at 300 MHz and the ^13C-NMR spectra were recorded at 75 MHz using a Varian Unity 300 instrument; • spectrophotometric measurements were carried out using a Lambda Perkin Elmer 15 UV/Vis spectrophotometer for the DPPH assay and a Wallac Victor 1420 multilabel counter spectrophotometer.

[4] = Acute toxicity study, intraperitoneal single dose (OECD guideline no. 420); assay type: in vivo; details: result in words, with reference to Example 13
Experimental: This study was carried out with the purpose of investigating the toxicity of a single dose of the listed compounds administered to ICR (CD-1) female mice. According to the current OECD guideline no.
The mice used were all female and were treated by intraperitoneal injection administration. The animals were observed individually and regularly for the first 4 hours and within 24 hours after administration, and then twice a day for the whole observation period. As soon as the animals were stabilized, observations at the weekend were undertaken once only during the day.
The evaluated parameters included the survival, body weight development, variations in skin and fur, changes in ocular, conjunctival and buccal mucous membranes, changes in activities of the respiratory, circulatory, autonomous and central nervous systems, changes in somatomotor activity and in behaviour.
Any appearance of tremors, convulsions, salivation, diarrhea, lethargy, drowsiness and coma were attentively and regularly monitored. At the end of the observation period, a post-mortem was carried out on all the animals.

SMILES	Brain/BWi its own [1] [%]	CAT/pr its own [1] [%]	GPX/pr its own [1] [%]	GSH/pr its own [1] [%]	GST/pr its own [1] [%]	Prot. Hmg its own [1] [%]	Prot. Ox/pr its own [1] [%]	SOD/pr its own [1] [%]	Brain/BWi vehicle [1] [%]	CAT/pr vehicle [1] [%]	GPX/pr vehicle [1] [%]	GSH/pr vehicle [1] [%]	GST/pr vehicle [1] [%]	Prot. Hmg vehicle [1] [%]	Prot. Ox/pr vehicle [1] [%]	SOD/pr vehicle [1] [%]	Brain/BWi [1] [%]	CAT/pr [1] [%]	GPX/pr [1] [%]	GSH/pr [1] [%]	also measured
O=C1C=C(NCCN2CCCCC2)CC(c2ccccc2)C1 (stereo not shown) [(3), 5-phenyl-3-(2-(piperidin-1-yl)ethylamino)cyclohex-2-enone]	-30.4	-48.5	23.2	0.0	37.4	-101.2	-116.3	107.7	-76.8	3.0	-20.2	-7.2	-48.4	-32.5	-107.0	86.7	1.0	-9.2	2.4	0.4	GST/pr [1]: 4.1%; Prot. Hmg [1]: 2.3%; Prot. Ox/pr [1]: -7.8%; SOD/pr [1]: 1.1%; Mean % variation relative to the vehicle [1]: -1.3%; overall percentage inhibition [1]: greater than 40%; bioavailability at the target site / crossing of the blood-brain barrier [2]: particularly bioavailable, as well as able to cross the blood-brain barrier in effective amounts; Acid dissociation constants: pKa1 [3]: 2.82; Acid dissociation constants: pKa2 [3]: 8.46
CC1(C)CC(=O)C=C(NN2CCCCC2)C1 [(6), 5,5-dimethyl-3-(piperidin-1-ylamino)cyclohex-2-enone]	-18.8	-28.8	-100.0	-72.8	-36.3	-97.6	45.9	-60.8	10.1	6.8	-34.3	-10.4	-18.7	-8.4	21.5	-2.1	-2.5	-6.4	-8.7	-9.6	GST/pr [1]: -2.5%; Prot. Hmg [1]: 8.4%; Prot. Ox/pr [1]: -5.6%; SOD/pr [1]: -10.8%; Mean % variation relative to the vehicle [1]: -5.4%; overall percentage inhibition [1]: greater than 40%; bioavailability at the target site / crossing of the blood-brain barrier [2]: particularly bioavailable, as well as able to cross the blood-brain barrier in effective amounts; pKa ([3]; read-out: Acid dissociation constant: pKa): 2.62; toxicity evaluation in vivo (tolerability) [4]: well tolerated
CC1(C)CC(=O)C=C(NCCN2CCCCC2)C1 [(1), 5,5-dimethyl-3-(2-(piperidin-1-yl)ethylamino)cyclohex-2-enone]	-76.8	-32.6	-16.2	-8.8	5.5	-16.9	-95.9	-9.1	-33.3	77.3	22.2	-2.4	16.5	22.9	-82.6	29.4	-3.2	-7.1	-7.6	-1.5	GST/pr [1]: -2.3%; Prot. Hmg [1]: 5.3%; Prot. Ox/pr [1]: 1.4%; SOD/pr [1]: -5.9%; Mean % variation relative to the vehicle [1]: -4.3%; overall percentage inhibition [1]: greater than 40%; bioavailability at the target site / crossing of the blood-brain barrier [2]: particularly bioavailable, as well as able to cross the blood-brain barrier in effective amounts; Acid dissociation constants: pKa1 [3]: 2.82; Acid dissociation constants: pKa2 [3]: 8.64; toxicity evaluation in vivo (tolerability) [4]: well tolerated
